Values quoted from earlier work as cited in patent US8748481B2, “Method for treating gastrointestinal disorder” (Sucampo AG, priority 2004, dated 2014).
Counter-ions that a name gives are not always drawn.

Test system: patients with IBS with constipation / chronic idiopathic constipation
Conditions: cited from earlier work

## [H]/N=C(/NCCCCC)N/N=C/c1c[nH]c2ccc(OC)cc12 [Zelnorm®, tegaserod maleate]
After patients stop taking the drug
  Return of symptoms after stopping: may return within 1 or 2 weeks
Subgroup analyses
  Treatment effect over placebo in patients aged 65 years and older: no significant treatment effect
Two randomized, placebo-controlled, double-blind studies enrolling 288 males
  Response rates vs. placebo in males: no significant differences
